Literature values in US8748497B2, “Optimized fluorocarbon emulsions for blood substitutes and other therapeutic uses” (Alliance Pharmaceutical Corp., priority 2006, dated 2014).

Conditions: components of FLUOSOL; cited from earlier work

SMILES | rate constant for RES elimination (k24) [day⁻¹]
FC1(F)C(F)(F)C(F)(F)C2(F)C(F)(F)C(F)(F)C(F)(F)C(F)(F)C2(F)C1(F)F (centres unmarked) [F-decalin, perfluorodecalin] | 0.10
FC(F)(F)C(F)(F)C(F)(F)N(C(F)(F)C(F)(F)C(F)(F)F)C(F)(F)C(F)(F)C(F)(F)F [F-tripropylamine, perfluorotripropylamine] | 0.011
